# Data from the OligoGym collection.
# Values joined by “and” are separate entries in the source; they are usually repeats but may differ in a detail not shown here. Identical values can stand only once. After the bases stand the sugars from the 5' end (letter, count) and the backbone: PS all phosphorothioate, else s phosphorothioate and o phosphodiester by linkage. Methylation of C is not given here. e = 2'-O-(2-methoxyethyl) (MOE); k = constrained ethyl (cEt); d = 2'-deoxy (DNA); m = 2'-O-methyl
# Target: HSD17B13
# Details: ASO, HepaRG
Sequence,target mRNA inhibition (1 µM),other results
"CCATGGATCTAGAACA (sugars k3 d10 k3, PS)",15%,–
"CCATTTACATATGGTG (sugars k3 d10 k3, PS)",28%,–
"CCCAAAAATGTCCTAG (sugars k3 d10 k3, PS)",18%,–
"CCCAAGCTACCTCCAA (sugars k3 d10 k3, PS)",15%,–
"CCCAAGGCCTGAAGTT (sugars k3 d10 k3, PS)",61%,–
"CCCAATTATGAATCTG (sugars k3 d10 k3, PS)",62%,–
"CCCTTTATGTCTTTGG (sugars k3 d10 k3, PS)",35%,–
"CCGAAAAAAGTGGAGG (sugars k3 d10 k3, PS)",31%,–
"CCGTTATAAGTTTCAT (sugars k3 d10 k3, PS)",54%,–
"CCTAAACAAACACTAT (sugars k3 d10 k3, PS)",8%,–
"CCTACCAAGAGGGTTT (sugars k3 d10 k3, PS)",34%,–
"CCTAGATTCTACACTA (sugars k3 d10 k3, PS)",14%,–
"CCTAGGATGTTGACCT (sugars k3 d10 k3, PS)",3%,–
"CCTAGGGAGGAGGTAC (sugars k3 d10 k3, PS)",34%,–
"CCTATATACATCCAAG (sugars k3 d10 k3, PS)",53%,–
"CCTATGCAAATTCATA (sugars k3 d10 k3, PS)",34%,–
"CCTATTTGTAATATTG (sugars k3 d10 k3, PS)",0%,–
"CCTCAAATGAGGCGGC (sugars k3 d10 k3, PS)",47%,–
"CCTGAAAAGCCCTATT (sugars k3 d10 k3, PS)",0%,–
"CCTTACTAAGGAAATT (sugars k3 d10 k3, PS)",28%,–
"CCTTAGAGTGAATCAT (sugars k3 d10 k3, PS)",65%,–
"CCTTGTGTAGTCCTAG (sugars k3 d10 k3, PS)",67%,target mRNA inhibition (0.02 µM): 4%; target mRNA inhibition (0.078 µM): 28%; target mRNA inhibition (0.313 µM): 44%; target mRNA inhibition (1.25 µM): 72%; target mRNA inhibition (5 µM): 85%
"CGATAGATCTCTTCTC (sugars k3 d10 k3, PS)",15%,–
"CGCAACAGTTTAGATT (sugars k3 d10 k3, PS)",57%,–
"CGCACACTGAAGCCAC (sugars k3 d10 k3, PS)",56%,–

Sequence,target mRNA inhibition (1 µM),other results
"CGCTACTGTAGGCTAA (sugars k3 d10 k3, PS)",68%,–
"CGGCAAATTTGCTGGA (sugars k3 d10 k3, PS)",29%,–
"CGGTCACCTTTCATAA (sugars k3 d10 k3, PS)",69%,–
"CGTTATAAGTTTCATG (sugars k3 d10 k3, PS)",33%,–
"CGTTTGACTGCTGCTA (sugars k3 d9 k3 e1, PS)",75% and 50%,target mRNA inhibition (0.02 µM): 4%; target mRNA inhibition (0.078 µM): 17%; target mRNA inhibition (0.313 µM): 34%; target mRNA inhibition (1.25 µM): 57%; target mRNA inhibition (5 µM): 66%
"CGTTTTGGGCTAATGA (sugars k3 d10 k3, PS)",48%,–
"CTAAAATTGTCTAAAC (sugars kkdddddddddkekek, PS)",19%,–
"CTAAACATCTCTGGGA (sugars k3 d9 k3 e1, PS)",57%,–
"CTAACCAATTATATGA (sugars k3 d10 k3, PS)",21%,–
"CTAAGTAGTAATTCTA (sugars k3 d10 k3, PS)",35%,–
"CTAATAACTACATGAC (sugars k3 d10 k3, PS)",18%,–
"CTACAAGAGGTTATTT (sugars k3 d10 k3, PS)",31%,–
"CTACAGAGGAGTTTGC (sugars k3 d10 k3, PS)",27%,–
"CTACCACATACGCATG (sugars k3 d10 k3, PS)",25%,–
"CTACCTCCAAATTCCC (sugars k3 d10 k3, PS)",27%,–
"CTACTTGAACAGTCTT (sugars k3 d9 k3 e1, PS)",71%,–
"CTACTTGAACAGTCTT (sugars k3 d10 k3, PS)",80%,target mRNA inhibition (0.02 µM): 8%; target mRNA inhibition (0.078 µM): 23%; target mRNA inhibition (0.313 µM): 49%; target mRNA inhibition (1.25 µM): 79%; target mRNA inhibition (5 µM): 97%
"CTACTTGAACAGTCTT (sugars kkdddddddddkekek, PS)",47%,–
"CTACTTTCAAACCTTG (sugars k3 d10 k3, PS)",57%,–
"CTAGATACTCAATTTA (sugars k3 d10 k3, PS)",30%,–
"CTAGGAAGTGATCCAT (sugars k3 d10 k3, PS)",66%,–
"CTAGGGAAATCTTTCA (sugars k3 d1 m1 d8 k3, PS)",19%,–
"CTAGTAATTGCATCTG (sugars k3 d10 k3, PS)",57%,–
"CTAGTGCCAAACCAAT (sugars kkdddddddddkekek, PS)",47%,–
"CTAGUGCCAAACCAAT (sugars k3 d1 m1 d8 k3, PS)",45%,–

Sequence,target mRNA inhibition (1 µM),other results
"CTATAATACATTAGCA (sugars k3 d10 k3, PS)",3%,–
"CTATAGTAATCACAAG (sugars k3 d10 k3, PS)",35%,–
"CTATCAACCTGCACAC (sugars k3 d10 k3, PS)",39%,–
"CTATCAGAACAGTTCA (sugars k3 d10 k3, PS)",48%,–
"CTATCTCCCTATTTGT (sugars k3 d10 k3, PS)",15%,–
"CTATGTAATAGGCAGT (sugars k3 d10 k3, PS)",73%,target mRNA inhibition (0.02 µM): 18%; target mRNA inhibition (0.078 µM): 20%; target mRNA inhibition (0.313 µM): 63%; target mRNA inhibition (1.25 µM): 75%; target mRNA inhibition (5 µM): 86%
"CTATTATGCACTCTAT (sugars k3 d10 k3, PS)",32%,–
"CTATTGATTGGCTTAA (sugars k3 d10 k3, PS)",31%,–
"CTATTGTATGAGGTCT (sugars k3 d10 k3, PS)",42%,–
"CTCAAATGAGGCGGCA (sugars k3 d10 k3, PS)",56%,–
"CTCAAATGTCTTGGTA (sugars k3 d10 k3, PS)",29%,–
"CTCAGGCTGTAAGAGT (sugars k3 d1 m1 d8 k3, PS)",46%,–
"CTCAGGCTGTAAGAGT (sugars k3 d9 k3 e1, PS)",21%,–
"CTCCATCATCGATGGA (sugars k3 d10 k3, PS)",0%,–
"CTCCGTGTAGTTTGGT (sugars k3 d10 k3, PS)",28%,–
"CTCTAAATACCCTTGG (sugars k3 d10 k3, PS)",7%,–
"CTCTAATGTTTCTTGA (sugars k3 d10 k3, PS)",53%,–
"CTCTATAAAATCAATC (sugars k3 d10 k3, PS)",0%,–
"CTCTGGGACCAAGGAT (sugars k3 d10 k3, PS)",51%,–
"CTCTTAGCTGTGCACT (sugars kkdddddddddkekek, PS)",56%,–
"CTCTTTTTATAGACTG (sugars k3 d10 k3, PS)",63%,–
"CTGAAATTGATACACC (sugars k3 d9 k3 e1, PS)",75%,target mRNA inhibition (0.02 µM): 0%; target mRNA inhibition (0.078 µM): 17%; target mRNA inhibition (0.313 µM): 51%; target mRNA inhibition (1.25 µM): 61%; target mRNA inhibition (5 µM): 81%
"CTGAGTAAACGACTCT (sugars k3 d10 k3, PS)",33%,–
"CTGATTAATCTTGATG (sugars k3 d10 k3, PS)",32%,–
"CTGATTACAGCATCAA (sugars k3 d10 k3, PS)",40%,–

Sequence,target mRNA inhibition (1 µM),other results
"CTGATTTAGAGAGCGA (sugars k3 d10 k3, PS)",61%,–
"CTGCAAAGTTAATAGG (sugars k3 d10 k3, PS)",57%,–
"CTGCATTAATGCCACC (sugars k3 d1 m1 d8 k3, PS)",52%,–
"CTGCATTAATGCCACC (sugars k3 d10 k3, PS)",67%,target mRNA inhibition (0.02 µM): 0%; target mRNA inhibition (0.078 µM): 0%; target mRNA inhibition (0.313 µM): 17%; target mRNA inhibition (1.25 µM): 40%; target mRNA inhibition (5 µM): 81%
"CTGCCAGATTGCACAA (sugars k3 d10 k3, PS)",44%,–
"CTGCCCTAGATTCTAC (sugars k3 d10 k3, PS)",33%,–
"CTGCGCACATATTTTA (sugars k3 d10 k3, PS)",92%,target mRNA inhibition (0.02 µM): 0%; target mRNA inhibition (0.078 µM): 0%; target mRNA inhibition (0.313 µM): 7%; target mRNA inhibition (1.25 µM): 52%; target mRNA inhibition (5 µM): 74%
"CTGCTAGTGCCAAACC (sugars k3 d9 k3 e1, PS)",67%,–
"CTGCTAGTGCCAAACC (sugars k3 d10 k3, PS)",74%,–
"CTGCTGAAACTTGATC (sugars k3 d10 k3, PS)",50%,–
"CTGGTAAAGGTAAGGG (sugars k3 d10 k3, PS)",58%,–
"CTGTAATTGGCTCTTG (sugars k3 d10 k3, PS)",28%,–
"CTGTAGGCTAAACCCT (sugars k3 d10 k3, PS)",47%,–
"CTGTAGGTTTTGCTTC (sugars k3 d10 k3, PS)",27%,–
"CTGTGCACTCATTCTG (sugars k3 d10 k3, PS)",51%,–
"CTGTGTTAGCTTTAAT (sugars k3 d10 k3, PS)",67%,target mRNA inhibition (0.02 µM): 9%; target mRNA inhibition (0.078 µM): 0%; target mRNA inhibition (0.313 µM): 28%; target mRNA inhibition (1.25 µM): 77%; target mRNA inhibition (5 µM): 92%
"CTTAACAAACCTCCAC (sugars k3 d10 k3, PS)",3%,–
"CTTAAGATACCCAGGT (sugars k3 d1 m1 d8 k3, PS)",50%,–
"CTTAAGATACCCAGGT (sugars k3 d10 k3, PS)",36%,–
"CTTAAGATACCCAGGT (sugars kkdddddddddkekek, PS)",34%,–
"CTTAAGGATCATTGCA (sugars k3 d10 k3, PS)",29%,–
"CTTACCTTGTGCTTGG (sugars k3 d10 k3, PS)",34%,–
